Test results from US9133236B2, “Connective tissue stimulating peptides” (priority 2002, dated 2015).
Where no end group is shown, it is not given here. [ ]: non-standard residue; d: D form. Hyp = O=C(O)[C@@H]1C[C@@H](O)CN1

Columns and labels:
tibia = test: Periosteal tibia injection, DEXA bone mineral density and content; format: in vivo, male Wistar rats; settings: 7 days post injection; for changes in BMC (bone mineral content) / changes in BMD (bone mineral density): treated whole tibia in all regions, DEXA, SKELITE powder carrier
Description: BCSP1 peptide and BCSP4 peptide were tested at four dose levels, 0.05, 0.5, 1.0 & 5.0 mg/rat or vehicle, n=6 per dose. Sixty male Wistar rats, weighing 90-110 grams, were randomized into two groups, ear tagged and left undisturbed for 1 week prior to the procedure. Food and water are administered ad libitum. Animals weighed 150-190 grams at time of injection. Group 1 received injections of BCSP4 peptide on day 8 of acclimation. Group 2 received injections of BCSP1 peptide on day 9 of acclimation. Dissections were conducted on respective days, 7 days post injection.
The peptides were dissolved in sterile water at 0.05-5 mgs per 100 microliter volume, added to 0.5 mg of a dry synthetic biomaterial compound (SKELITE™) powder and lyophilized onto the carrier. Samples are resuspended in 100 microliters of sterile saline for injection. Delivery of the test compound was made under a general anaesthetic of Isofluorane with oxygen. Using a 0.5 cc insulin syringe fitted with a 28G1/2″ needle, the peptides were deposited onto the periosteal surface of the right medial tibia surface proximal to the knee under the Tibialis cranialis muscle group. Control animals are injected with saline vehicle and a synthetic biomaterial compound (SKELITE™) carrier.
Animals were euthanized with carbon dioxide and dissected to remove the treated right tibia and contra-lateral control limb, 7 days post injection. Muscle and soft connective tissue is dissected away prior to fixation in 70% ethanol.
Each tibia set was scanned as a pair for bone mineral density (BMD) and bone mineral content (BMC) on a Norland Eclipse DEXA scanner in small subject mode. Percent increases in local BMD (FIG. 5) were calculated against the untreated contra-lateral limb. […] This increase in physical size reduces the overall percentage increase in BMD (BMD=BMC/cm^2). Each tibia was analyzed in 3 contiguous regions, proximal, medial and distal as well as whole tibia measurements. Comparisons and statistical assessment of dose versus vehicle were conducted for each peptide for bone forming activity using a standard student t-test.

[1] = tested on: osteoblast cultures derived from rat bone marrow; test: Osteoblast proliferation, BrdU incorporation, bone marrow derived cultures; format: cell-based; settings: 24 hr exposure
Description: (§1) BCSP1 was tested in three assays to understand the mechanism of bone stimulation by the peptide. Dose ranges in the microgram range were used to generate dose response curves. All assays used primary rat osteoblast cultures from bone marrow or calvaria.
(§2) Osteoblast proliferation was accessed using a DNA based assay which measures bromodeoxyuridine (BrdU) incorporation. Differentiation of osteoblasts was determined using the mid to late stage bone marker Alkaline Phosphatase. Late stage differentiation and mineralization was determined using a Bone Nodule formation assay (calvaria only).
Cells were cultured for four days prior to a 24 hr exposure to the peptide (FIG. 11).

[2] = tested on: osteoblast cultures derived from rat calvaria; test: Osteoblast proliferation, BrdU incorporation, calvaria derived cultures; format: cell-based; settings: dose range of 1.3-6.4 ng/ml; 24 hr exposure
Description: as §1, §2
Cells were cultured for four days prior to a 24 hr exposure to the peptide at a dose range from 100 μg/ml to 1.3 ng/ml of peptide (FIG. 12).

human chondrocytes = test: [3H] thymidine incorporation assay, human primary chondrocyte cultures; format: cell-based
Description: (§3) BCSP1 was tested in vitro to determine effect on bovine and human primary chondrocyte cultures using a [3H] thymidine incorporation assay. Cells were seeded at […] for human chondrocytes (96 well plate) and allowed to attach for 48 h (medium containing 10% fetal bovine serum (FBS). Pre-confluent cells were then treated in quaduplicate with BCSP1 (0, 10, 20 and 40 ng/ml for 48 hrs and with [3H]thymidine ([…]) for the last 24 hrs (medium containing 2% FBS). The culture medium used was Dulbecco's Modified Eagle Medium (DMEM) (Gibco, Cat. #23800) containing 200 units/ml Penicillin, 200 ug/ml Streptomycin and 10% FBS for growth and 2% FBS for dosing.

bovine chondrocytes = test: [3H] thymidine incorporation assay, bovine primary chondrocyte cultures; format: cell-based
Description: as §3

[3] = tested on: rat bone marrow derived osteoblasts; test: Cell bound alkaline phosphatase, bone marrow derived osteoblasts; format: cell-based
Description: as §1, §2
(§4) Cell bound alkaline phosphatase from cell lysates of rat bone marrow derived osteoblasts and rat calvaria derived osteoblasts. BCSP1 was provided at a dose range of 100 μg/ml to 1 μg/mL. Cells were cultured for 3 days prior to a 48 hr exposure to the peptide.

[4] = tested on: rat calvaria derived osteoblasts; test: Cell bound alkaline phosphatase, calvaria derived osteoblasts; format: cell-based; settings: rat calvaria cultures (RC); 10 μg/ml to 100 μg/ml; 48 hr exposure
Description: as §1, §2, §4

rat calvaria cultures = test: Bone nodule formation assay, alizarin red staining; format: cell-based; settings: 10 days
Description: as §1, §2
Rat calvaria cultures were maintained for 10 days in the presence of BCSP1 at a dose range of 1 ng/ml to 100 μg/ml with dosing provided at each fluid change. Mineralized bone nodules were detected by staining with alizarin red. Image analysis was conducted with an Alpha Imager 2000™ to count and quantify nodule area. […] Increased alkaline phosphatase would lead to increases in total mineralized area.

PGPIG [BCSP7]
changes in BMC (bone mineral content) (tibia): Significant changes
changes in BMD (bone mineral density) (tibia): Significant changes

PGPIGPPGPR [BCSP10]
changes in BMC (bone mineral content) (tibia): Significant changes
changes in BMD (bone mineral density) (tibia): Significant changes

PGPIGP [BCSP9]
changes in BMC (bone mineral content) (tibia): Significant changes
changes in BMD (bone mineral density) (tibia): Significant changes

NGLPGPIGP* (NGLPGPIG[Hyp]) [BCSP1, P* is hydroxyproline]
increase in DNA synthesis ([1]; rat bone marrow osteoblasts, up to 100 μg/ml): ≤ 75%
osteoblast proliferation ([1]; to 100 μg/ml): dose response increase
osteoblast proliferation [2]: statistically significant increase
proliferation of chondrocyte cells (human chondrocytes; 10, 20 and 40 ng/ml, 48 hrs): dose dependent increase
effect on proliferation (human chondrocytes; doses in the nanogram range): up to 3 fold
bone size (tibia; treated tibia): increase in bone size
proliferation of chondrocyte cells (bovine chondrocytes; 10, 20 and 40 ng/ml, 48 hrs): dose dependent increase
effect on proliferation (bovine chondrocytes; doses in the nanogram range): up to 3 fold
specific activity of alkaline phosphatase ([3]; further experimentation, not shown, culture not specified): increase in specific activity
alkaline phosphatase over control (vehicle) ([3]; rat bone marrow cultures (RBM), 1 μg/ml to 100 μg/ml, 48 hr exposure): dose dependent response
alkaline phosphatase over control (vehicle) [4]: dose dependent response
number of bone nodules formed (rat calvaria cultures; 1 ng/ml and 10 ng/ml range): slight increase
number of bone nodules formed (rat calvaria cultures; 1 ng/ml to 100 μg/ml): minimal changes
total mineralized bone nodule area (size of nodules) (rat calvaria cultures; 1 ng/ml to 100 μg/ml, dose dependent): significantly increased
